Test results from US20240158418A1 (C4 Therapeutics, Inc., priority 2021, published 2024).

Columns and labels:
NCI-H1975 cells = experiment: Global proteomics (TMT), NCI-H1975; type: cell-based, human
Experimental: Each cell line was treated in duplicate with either DMSO or Compound 1 (final concentration 300 nM) for 6 hours in an incubator at 37° C. with 5% CO2. After 6 hour incubation, cells were harvested, washed twice with PBS, and snap frozen in liquid nitrogen. Samples were re-suspended in lysis buffer [8 M urea, 50 mM HEPS (pH 8.5), 50 mM NaCl, 1× protease inhibitor cocktail] and lysed by sonication at 4° C. with 85% amplitude in a pulse setting with 30 seconds on and 30 seconds off for a total sonication time of 5 minutes. Lysates were centrifuged at maximum speed for 10 minutes at 4° C. and the supernatant collected, reduced for 1 hour at room temperature with 5 mM TCEP, and the cysteine residues were then alkylated with 15 mM iodoacetamide (room temperature, in dark, 30 minutes). Protein content was extracted by methanol-chloroform precipitation and subsequent ice-cold acetone washes. Protein pellets were resuspended in 8 M urea, 50 mM HEPES (pH 8.5) buffer and protein concentrations were measured by BCA assay. […]
6 μL of each sample was separated by reversed phase chromatography using an EASY-Spray C18 column (2 μm particle size, 500 mm length×75 μm ID) mounted in an EASY-nLC 1200 LC pump coupled to an Orbitrap Fusion Lumos Tribid mass spectrometer. […] TMT reporter ion intensities were quantified by extracting the signal-to-noise ratio for each. […]

EGFR L858R [1] = biological target: T1, EGFR L858R (Homo sapiens, UniProt P00533, L858R); experiment: Differential scanning fluorimetry (DSF); type: binding; details: EGFR (L858R) 10 μM, compound 100 μM, vs apo protein +DMSO TM = 45.4° C.
Experimental: The protein was incubated at 10 μM in buffer (100 mM HEPES pH 7.5 and 150 mM NaCl) with DMSO to determine the stability of the protein alone. In addition, the protein (10 μM) was incubated with each compound (100 μM) individually, or in combination, for 30 min on ice. Protein stability was measured in the presence of 4×SYPRO™ Orange dye (Thermo Fisher) using a ViiA7 Real-Time PCR System (Thermo Fisher) adapted for thermal melts. Reactions of 20 μL were run in quadruplicate using Microamp Optical 384-well reaction plates (Applied Biosystems). Temperature was increased by 0.5° C. intervals from 25° C. to 99° C. and fluorescence intensity was measured. In-house curve fitting analysis software was used to calculate the thermal melting point (TM) of the protein in each reaction.

pY1068 EGFR = biological target: T2, pY1068 EGFR (Homo sapiens, UniProt P00533, L858R); experiment: Western blot NCI-H3255, Compound 1 with or without osimertinib: phospho-EGFR; type: cell-based; details: NCI-H3255, six hours, 0-1,500 nM, presence and absence of 1,500 nM osimertinib
T2 construct: NCI-H3255 (harboring EGFR heterozygous L858R mutation); host or cells: NCI-H3255
Text: (§1) The compound bearing solutions were formulated to achieve a 0.1% final concentration of DMSO. […] Antibodies used in western blot were purchased from the following vendors: EGFR-L858R specific antibody (CST 3197), pY1068 EGFR (CST 2234), pERK (CST 4370), ERK (CST 4695), vinculin (Millipore 05-386).

EGFR L858R [2] = biological target: T1, EGFR L858R; experiment: Western blot NCI-H3255, Compound 1 with or without osimertinib: EGFR-L858R; type: cell-based; details: NCI-H3255, six hours, 0-1,500 nM, presence and absence of 1,500 nM osimertinib
Text: as §1

[3] = tested on: NCI-H1975 L858R-T790M NSCLC xenograft tumors; experiment: NCI-H1975 NSCLC xenograft efficacy; type: in vivo, female BALB/c nude mice
Experimental: For the NCI-H1975 cells, the xenograft study was conducted in female BALB/c nude mice bearing NCI-H1975 NSCLC tumors. Female nude mice were inoculated subcutaneously in the right flank with 5×10^6 tumors cells in 0.1 mL of PBS. Tumor volume was measured twice weekly in two dimensions using calipers, and volume (mm^3) was calculated using the formula: V=0.5 a×b^2 where a and b are the long and short diameters of the tumor in mm, respectively.
Body weight and MTV were measured on a 2× weekly schedule. Statistical analysis was performed using a one-way ANOVA. Data are expressed as MTV±SEM.

Structure (SMILES): O=C1CC[C@H](Nc2ccc(N3CCC(O)(CC(=O)N4CC5(C4)CN(c4ccc(-c6cc(F)c7c(c6)C(=O)N(C(C(=O)Nc6nccs6)c6ncn8c6CCC8)C7)cc4)C5)CC3)c(F)c2)C(=O)N1 (stereo partly drawn) [Compound 1, 2-(6,7-dihydro-5H-pyrrolo[1,2-c]imidazol-1-yl)-2-[6-[4-[2-[2-[1-[4-[[(3S)-2,6-dioxo-3-piperidyl]amino]-2-fluoro-phenyl]-4-hydroxy-4-piperidyl]acetyl]-2,6-diazaspiro[3.3]heptan-6-yl]phenyl]-4-fluoro-1-oxo-isoindolin-2-yl]-N-thiazol-2-yl-acetamide]
- degradation selectivity for mutant EGFR-L858R over non-EGFR proteins (NCI-H1975 cells): highly selective
- ΔTm at 100 µM (EGFR L858R [1]): 5.8 °C
- phospho-EGFR inhibition (western blot) (pY1068 EGFR): inhibited
- EGFR-L858R degradation (western blot) (EGFR L858R [2]): efficiently degraded
- efficacy on NCI-H1975 tumor volume ([3]; 20, 50 and 100 mg/kg/day PO BID, 14 days): reduced tumor volume
- tumor regression ([3]; NCI-H1975 mouse xenograft model, oral): up to 90%
